From patent US11136348B2, “Furostan-3-ol derivatives as skeletal muscle hypertrophic agents” (EMMYON, INC., priority 2015, dated 2021) come the findings set out here.

One experiment deals with C2C12 skeletal myotubes. The experiment can be described thus: Total cellular protein content in C2C12 skeletal myotubes (BCA). Type of experiment: cell-based, Mouse. The following applies: 48 h incubation, vs vehicle (0.1% DMSO); for Percent change in total protein at 0.03 µM / Percent change in total protein at 0.1 µM / Percent change in total protein at 0.3 µM / Percent change in total protein at 1 µM / Percent change in total protein at 3 µM: Mus musculus, C2C12. Here is the method:
The compounds were tested in a well-established in vitro model of skeletal muscle, namely fully differentiated, post-mitotic C2C12 skeletal myotubes. Mouse C2C12 myoblasts may be obtained from ATCC (CRL-1772) and maintained at 37° C. and 5% CO2 in Dulbecco's modified Eagle's medium (ATCC #30-2002) containing antibiotics (100 units/mL penicillin, […] streptomycin sulfate) and 10% (v/v) fetal bovine serum (FBS). Myoblasts were set up for experiments on day 0 in 6-well plates at a density of 2.5×10^5 cells/well. On day 2, myoblasts were induced to differentiate into myotubes by replacing 10% FBS with 2% horse serum (HS). On day 7, myotubes were rinsed once with PBS, and then 2% HS was replaced with 10% FBS. The vehicle (0.1% DMSO) or varying concentrations of test compound were added directly to the media. After 48 h incubation, myotube protein content and size were measured.
To determine myotube protein content, myotubes were washed with ice cold PBS, scraped into lysis buffer (10 mM Tris-HCl, pH 7.6, 100 mM NaCl, and 1% (w/v) SDS, complete Mini protease inhibitor cocktail (Roche), and a 1:100 dilution of phosphatase inhibitor cocktail 3 (Sigma)), and then lysed with 10 passes through a 22-gauge needle. An aliquot of each myotube lysate sample was then used to determine protein concentration by the BCA kit (Pierce). […] To determine myotube size, myotubes were subjected to immunofluorescence staining with anti-troponin primary antibody and a fluorescent secondary antibody. Myotubes were then imaged on an Olympus IX-71 microscope equipped with a DP-70 camera and epifluorescence filters. Image analysis was performed using ImageJ software.

For experiment [1], the system named is Male C57BL/6 mice, tibialis anterior (TA) muscle. The experiment is described as follows: Mouse model of muscular atrophy: unilateral tibialis anterior immobilization. Format: in vivo. The following applies: 10 mg/kg i.p. twice a day for 7 days; 6 days TA immobilization; immobilized TA weight normalized to contralateral mobile TA; 12-13 mice. Here is the method:
Compounds of the invention were also tested in vivo in an established mouse model for muscular atrophy. Male C57BL/6 mice (8-10 weeks old) were administered i.p. injections of vehicle (corn oil) or 10 mg/kg test compound twice a day for 7 days. After 1 day of i.p. injections, one tibialis anterior (TA) muscle in each mouse was immobilized with a metal clip to induce skeletal muscle atrophy, as described previously (Dyle et al., Journal of Biological Chemistry 289: 14913-14924, 2014). In each mouse, the contralateral TA muscle remained mobile and served as a non-atrophied intrasubject control. After 7 days of i.p injections (6 days of unilateral TA immobilization), bilateral TA muscles were harvested and weighed. In each mouse, the amount of skeletal muscle loss in the immobilized TA muscle was determined by normalizing the weight of the immobilized TA muscle to the weight of the contralateral mobile (control) TA muscle. The data below are means ±SEM from 12-13 mice per condition. table: […]

Consider `CC(=O)NC[C@@H](C)CCC1=C(C)[C@H]2[C@H](C[C@H]3[C@@H]4CC[C@H]5C[C@@H](OC(C)=O)CC[C@]5(C)[C@H]4CC[C@@]32C)O1` [Example 1, (2aS,4S,6aS,6bS,8aS,8bS,11aS,12aS,12bR)-10-((S)-4-acetamido-3-methylbutyl)-6a,8a,9-trimethyl-2,2a,3,4,5,6,6a,6b,7,8,8a,8b,11a,12,12a,12b-hexadecahydro-1H-naphtho[2′,1′:4,5]indeno[2,1-b]furan-4-yl acetate], for which the Percent change in total protein at 0.03 µM in the experiment on C2C12 skeletal myotubes (0.03 μM) was 1 ± 1.1%. In addition, the Percent change in total protein at 0.1 µM with C2C12 skeletal myotubes (0.1 μM) is 5.6 ± 3.3%. Moreover, the Percent change in total protein at 0.3 µM in the experiment on C2C12 skeletal myotubes (0.3 μM) was determined as 10.7 ± 1.9%. Besides, the Percent change in total protein at 1 µM with C2C12 skeletal myotubes (1 μM) was found to be 16.7 ± 1.3%. Moreover, the Percent change in total protein at 3 µM in the experiment on C2C12 skeletal myotubes (3 μM) stood at 18.1 ± 0.5%. Also, the “% Muscle Loss (Mean ± SEM)” value in experiment [1] is on record as 4.8 ± 1.4%.
Turning to `CC1=C(CC[C@H](C)CNC(=O)OC(C)(C)C)O[C@H]2C[C@H]3[C@@H]4CC[C@H]5C[C@@H](O)CC[C@]5(C)[C@H]4CC[C@]3(C)[C@@H]12` [Example 2, tert-Butyl ((S)-4-((2aS,4S, 6aS,6bS, 8aS, 8bS,11aS,12aS,12bR)-4-hydroxy-6a, 8a,9-trimethyl-2,2a,3 ,4,5,6,6a,6b,7,8,8a, 8b,11a,12,12a,12b-hexadecahydro-1H-naphtho[2′,1′:4,5]indeno[2,1-b]furan-10-yl)-2-methylbutyl)carbamate], the Percent change in total protein at 0.03 µM in the experiment on C2C12 skeletal myotubes (0.03 μM) is 3.2 ± 2.1%. Also, the Percent change in total protein at 0.1 µM in the experiment on C2C12 skeletal myotubes (0.1 μM) turned out to be 3.2 ± 3%. The Percent change in total protein at 0.3 µM in the experiment with C2C12 skeletal myotubes (0.3 μM) amounted to 4.9 ± 3.9%. For the same compound, the Percent change in total protein at 1 µM in the experiment with C2C12 skeletal myotubes (1 μM) worked out at 8.3 ± 3.8%. The Percent change in total protein at 3 µM with C2C12 skeletal myotubes (3 μM) was determined as 10.8 ± 3%. Besides, the “% Muscle Loss (Mean ± SEM)” value in experiment [1] stood at 8.6 ± 1.8%.
For the compound `CC(=O)O[C@H]1CC[C@@]2(C)[C@@H](CC[C@@H]3[C@@H]2CC[C@@]2(C)[C@H]3C[C@@H]3OC(CC[C@H](C)CNC(=O)OC(C)(C)C)=C(C)[C@@H]32)C1` [Example 4, (2aS,4S,6aS,6bS,8aS,8bS,11aS,12aS,12bR)-10-((S)-4-((tert-butoxycarbonyl)amino)-3-methylbutyl)-6a,8a,9-trimethyl-2,2a,3,4,5,6,6a,6b,7,8,8a,8b,11a,12,12a,12b-hexadecahydro-1H-naphtho[2′,1′:4,5]indeno[2,1-b]furan-4-yl acetate acetate], the Percent change in total protein at 0.03 µM in the experiment with C2C12 skeletal myotubes (0.03 μM) came out at 4.3 ± 1.6%. Moreover, in the experiment on C2C12 skeletal myotubes (0.1 μM), the Percent change in total protein at 0.1 µM was determined as 4 ± 2.1%. Besides, in the experiment with C2C12 skeletal myotubes (0.3 μM), the Percent change in total protein at 0.3 µM was 11.2 ± 2.3%. The Percent change in total protein at 1 µM with C2C12 skeletal myotubes (1 μM) stood at 13.4 ± 1.5%. Moreover, the Percent change in total protein at 3 µM with C2C12 skeletal myotubes (3 μM) came to 11.4 ± 2.9%.
As to `CC1=C(CC[C@H](C)CNC(=O)OCC(C)C)O[C@H]2C[C@H]3[C@@H]4CC[C@H]5C[C@@H](O)CC[C@]5(C)[C@H]4CC[C@]3(C)[C@@H]12` [Example 6, Isobutyl ((S)-4-((2aS,4S,6aS,6bS, 8aS, 8bS,11aS,12aS,12bR)-4-hydroxy-6a, 8a,9-trimethyl-2,2a,3,4,5,6,6a,6b,7,8,8a, 8b,11a,12,12a,12b-hexadecahydro-1H-naphtho[2′,1′:4,5]indeno[2,1-b]furan-10-yl)-2-methylbutyl)carbamate], in the experiment on C2C12 skeletal myotubes (0.03 μM), the Percent change in total protein at 0.03 µM was 1.1 ± 0.8%. The Percent change in total protein at 0.1 µM with C2C12 skeletal myotubes (0.1 μM) was -0.1 ± 3.1%. In addition, in the experiment on C2C12 skeletal myotubes (0.3 μM), the Percent change in total protein at 0.3 µM was determined as 4.2 ± 3.2%. Also, the Percent change in total protein at 1 µM in the experiment on C2C12 skeletal myotubes (1 μM) was 10.9 ± 3.1%. The Percent change in total protein at 3 µM in the experiment on C2C12 skeletal myotubes (3 μM) turned out to be 9 ± 1.6%.
For `CC1=C(CC[C@H](C)CNC(C)C)O[C@H]2C[C@H]3[C@@H]4CC[C@H]5C[C@@H](O)CC[C@]5(C)[C@H]4CC[C@]3(C)[C@@H]12` [Example 7, (2aS,4S,6aS,6bS,8aS,8bS,11aS,12aS,12bR)-10-((S)-4-(Isopropylamino)-3-methylbutyl)-6a,8a,9-trimethyl-2,2a,3,4,5,6,6a,6b,7,8,8a,8b,11a,12,12a,12b-hexadecahydro-1H-naphtho[2′,1′:4,5]indeno[2,1-b]furan-4-ol], in that order: -0.9 ± 1.5%, 0.5 ± 1.9%, 11.6 ± 2.3%, 11 ± 1.9% and 12.2 ± 3.2%.
With `CC1=C(CC[C@H](C)CN(C)C)O[C@H]2C[C@H]3[C@@H]4CC[C@H]5C[C@@H](O)CC[C@]5(C)[C@H]4CC[C@]3(C)[C@@H]12` [Example 8, (2aS,4S,6aS,6bS,8aS,8bS,11aS,12aS,12bR)-10-((S)-4-(Dimethylamino)-3-methylbutyl)-6a,8a,9-trimethyl-2,2a,3,4,5,6,6a,6b,7,8,8a,8b,11a,12,12a,12b-hexadecahydro-1H-naphtho[2′,1′:4,5]indeno[2,1-b]furan-4-ol], in the experiment with C2C12 skeletal myotubes (0.03 μM), the Percent change in total protein at 0.03 µM came to 0.5 ± 2.1%. The Percent change in total protein at 0.1 µM in the experiment with C2C12 skeletal myotubes (0.1 μM) worked out at 5 ± 1.9%. For the same compound, in the experiment with C2C12 skeletal myotubes (0.3 μM), the Percent change in total protein at 0.3 µM stood at 9.7 ± 0.7%. Besides, the Percent change in total protein at 1 µM in the experiment with C2C12 skeletal myotubes (1 μM) stood at 10.7 ± 1.6%. For the same compound, the Percent change in total protein at 3 µM in the experiment with C2C12 skeletal myotubes (3 μM) is 9.1 ± 1.2%.
As for `CC1=C(CC[C@H](C)CNC(C)C(F)F)O[C@H]2C[C@H]3[C@@H]4CC[C@H]5C[C@@H](O)CC[C@]5(C)[C@H]4CC[C@]3(C)[C@@H]12` (stereo partly drawn) [Example 9, (2aS,4S,6aS,6bS,8aS,8bS,11aS,12aS,12bR)-10-((3S)-4-((1,1-Difluoropropan-2-yl)amino)-3-methylbutyl)-6a,8a,9-trimethyl-2,2a,3,4,5,6,6a,6b,7,8,8a,8b,11a,12,12a,12b-hexadecahydro-1H-naphtho[2′,1′:4,5]indeno[2,1-b]furan-4-ol], the Percent change in total protein at 0.03 µM in the experiment with C2C12 skeletal myotubes (0.03 μM) is -1.5 ± 2.3%. Further, the Percent change in total protein at 0.1 µM in the experiment with C2C12 skeletal myotubes (0.1 μM) was determined as 1.2 ± 0.7%. The Percent change in total protein at 0.3 µM with C2C12 skeletal myotubes (0.3 μM) turned out to be 8.6 ± 2.5%. Besides, the Percent change in total protein at 1 µM with C2C12 skeletal myotubes (1 μM) is 6.2 ± 2.1%. The Percent change in total protein at 3 µM in the experiment with C2C12 skeletal myotubes (3 μM) was determined as 6.9 ± 2.6%.
The like results for `CC1=C(CC[C@H](C)CNC(=O)OC(C)(C)C)O[C@H]2C[C@H]3[C@@H]4CC[C@H]5CC(NCCO)CC[C@]5(C)[C@H]4CC[C@]3(C)[C@@H]12` (stereo partly drawn) [Example 10, tert-Butyl ((2S)-4-((2aS,6aS,6bS,8aS,8bS,11aS,12aS,12bR)-4-((2-hydroxyethyl)amino)-6a,8a,9-trimethyl-2,2a,3,4,5,6,6a,6b,7,8,8a,8b,11a,12,12a,12b-hexadecahydro-1H-naphtho[2′,1′:4,5]indeno[2,1-b]furan-10-yl)-2-methylbutyl)carbamate] were, in that order, 10.3 ± 2.7%, 10.6 ± 2.2%, 15 ± 2.2%, 12.9 ± 1.6% and 16.1 ± 1.6%.
Consider `CC1=C(CC[C@H](C)CN)O[C@H]2C[C@H]3[C@@H]4CC[C@H]5CC(NCCO)CC[C@]5(C)[C@H]4CC[C@]3(C)[C@@H]12.Cl.Cl` (stereo partly drawn) [Example 11, 2-(((2aS,6aS,6bS,8aS,8bS,11aS,12aS,12bR)-10-((S)-4-amino-3-methylbutyl)-6a,8a,9-trimethyl-2,2a,3,4,5,6,6a,6b,7,8,8a,8b,11a,12,12a,12b-hexadecahydro-1H-naphtho[2′,1′:4,5]indeno[2,1-b]furan-4-yl)amino)ethanol dihydrochloride], for which the “Percent Change in Total Protein” value in the experiment with C2C12 skeletal myotubes (0.03 μM) is on record as −1.8 ± 2.0%; in the experiment on C2C12 skeletal myotubes (0.1 μM), 7.7 ± 1.5 %; in the experiment with C2C12 skeletal myotubes (0.3 μM), 6.3 ± 1.9 %; with C2C12 skeletal myotubes (1 μM), 8.8 ± 2.1 %; in the experiment with C2C12 skeletal myotubes (3 μM) it was 4.9 ± 1.1 %.
